In US10501412B2, “Conjugates of cell binding molecules with cytotoxic agents” (HANGZHOU DAC BIOTECH CO., LTD., priority 2012, dated 2019):

Conditions: generated by hydrolysis of Phe and Tyr in the animal blood circulation

## Mep-Ile-Tuv [Mep-Ile-Tuv moiety]
  fold less potency than tubulysin A and D: over 200 fold
